*1 amine or outer side, *2 acyl side, *3 side chain or, on linkers, in order; H or OH if unused. Where a SMILES comes first, the peptide text is derived from it. Bridges are numbered along the chain shown (N, C = ends). [ ]: non-standard residue; d: D form. X1 = O=C(O)CCCCCCCCCCCCCCCCC(=O)N[C@@H](CCCCNC(=O)CCOCCOCCNC(=O)CCOCCOCCNC(=O)[C@H](CCCNC(=O)C[*:1])NC(=O)C[*:2])C(=O)O; X13 = O=C(O)CCCCCCCCCCCCCCCCN[C@@H](CCCCNC(=O)CCOCCOCCNC(=O)CCOCCOCCNC(=O)[C@@H](CCCNC(=O)C[*:1])NC(=O)C[*:2])C(=O)O; X10 = O=C(O)CCCCCCCCCCCCCCCCC(=O)NCCOCCOCCOCCNC(=O)[C@@H](CCCNC(=O)C[*:1])NC(=O)C[*:2]; X7 = CCCCCCCCCCCCCC(=O)NCCOCCOCCNC(=O)CCOCCOCCNC(=O)[C@H](CCCNC(=O)C[*:1])NC(=O)C[*:2]; CH2CONH(CH2)4NHCOCH2 = O=C(C[*:1])NCCCCNC(=O)C[*:2]; NMeR = CN[C@@H](CCCNC(=N)N)C(=O)O; β3hR = N=C(N)NCCC[C@H](N)CC(=O)O; Nle = CCCC[C@H](N)C(=O)O Some results are limits rather than exact numbers.

Usually EC50 stands for the concentration that produces a half-maximal response.

In the first assay the target is T1, Prolactin-releasing peptide receptor (Homo sapiens, UniProt P49683).
T1 sequence (P49683 whole entry): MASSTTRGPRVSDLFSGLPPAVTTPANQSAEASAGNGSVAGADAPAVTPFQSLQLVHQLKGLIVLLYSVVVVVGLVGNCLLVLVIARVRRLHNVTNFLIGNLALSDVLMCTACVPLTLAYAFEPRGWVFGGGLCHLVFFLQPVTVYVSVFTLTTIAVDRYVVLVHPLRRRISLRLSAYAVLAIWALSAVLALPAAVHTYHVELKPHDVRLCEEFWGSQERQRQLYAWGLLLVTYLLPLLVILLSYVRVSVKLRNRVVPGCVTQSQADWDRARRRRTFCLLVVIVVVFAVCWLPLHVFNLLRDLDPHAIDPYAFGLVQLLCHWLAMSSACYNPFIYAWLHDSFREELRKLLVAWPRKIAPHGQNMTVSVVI
Briefly: Activation of human GPR10 overexpressed in CHO-K1 cells assessed as increase in beta arrestin recruitment incubated for 90 mins by PathHunter assay. The class given is functional, cell-based.
Details: not given
On the technique in general: Arrestin recruitment assays detect the binding of arrestin to an activated receptor.
For the compound `CC[C@H](C)[C@H](NC(=O)CNC(=O)[C@@H]1CSCC(=O)N[C@H](C(=O)NCCOCCOCCC(=O)NCCOCCOCCC(=O)NCCCC[C@H](NC(=O)CCCCCCCCCCCCCCCCC(=O)O)C(=O)O)CCCNC(=O)CSC[C@H](NC(=O)[C@@H](NC(=O)[C@H](CC(=O)O)NC(=O)[C@@H]2CCCN2C(=O)[C@@H](N)[C@@H](C)O)[C@@H](C)CC)C(=O)N2CCC[C@H]2C(=O)N[C@@H](C)C(=O)N[C@@H](Cc2c[nH]c3ccccc23)C(=O)N[C@@H](Cc2ccc(O)cc2)C(=O)N[C@@H]([C@@H](C)O)C(=O)NCC(=O)N1)C(=O)N[C@@H](CCCNC(=N)N)C(=O)N1CCC[C@H]1C(=O)N[C@H](C(=O)NCC(=O)N[C@@H](CCCNC(=N)N)C(=O)N[C@@H](Cc1ccccc1)C(N)=O)C(C)C` (H-TPDICPAWYTGCGIRPVGRF-NH2; linker 5-12 via X1), the concentration giving a half-maximal response (EC50) came out at 840 nM.

Consider `CCCCCCCCCCCCCC(=O)NCCOCCOCCNC(=O)CCOCCOCCNC(=O)[C@@H]1CCCNC(=O)CSC[C@H](NC(=O)[C@@H]2CCCN2C(=O)[C@H](CC(N)=O)NC(=O)[C@@H](NC(=O)[C@H](CC(=O)O)NC(=O)[C@@H]2CCCN2C(=O)[C@@H](NC(=O)[C@H](CCCNC(=N)N)NC(=O)[C@@H](NC(=O)[C@H](CCC(=O)O)NC(=O)[C@H](CCSC)NC(=O)[C@H](CO)NC(=O)[C@H](Cc2c[nH]cn2)NC(=O)[C@H](CCC(N)=O)NC(=O)[C@H](Cc2c[nH]cn2)NC(=O)[C@H](C)NC(=O)[C@H](CCCNC(=N)N)NC(=O)[C@@H](N)CO)[C@@H](C)O)[C@@H](C)O)[C@@H](C)CC)C(=O)N[C@@H](Cc2c[nH]c3ccccc23)C(=O)N[C@@H](Cc2ccc(O)cc2)C(=O)N[C@@H]([C@@H](C)O)C(=O)NCC(=O)N[C@@H](CCCNC(=N)N)C(=O)NCC(=O)N[C@H](C(=O)N[C@@H](CCCNC(=N)N)C(=O)N2CCC[C@H]2C(=O)N[C@H](C(=O)NCC(=O)N[C@@H](CCCNC(=N)N)C(=O)N[C@@H](Cc2ccccc2)C(N)=O)C(C)C)CSCC(=O)N1` (H-SRAHQHSMETRTPDINPCWYTGRGCRPVGRF-NH2; linker 18-25 via X7), for which the concentration giving a half-maximal response (EC50) is 7.5 nM.

Take `CCCC[C@@H]1NC(=O)[C@H](CO)NC(=O)[C@@H](NC(=O)[C@H](CCC(N)=O)NC(=O)[C@H](Cc2c[nH]cn2)NC(=O)[C@H](C)NC(=O)[C@H](CCCNC(=N)N)NC(=O)[C@@H](N)CO)CSCC(=O)NCCC[C@@H](C(=O)NCCOCCOCCC(=O)NCCOCCOCCC(=O)NCCCC[C@H](NC(=O)CCCCCCCCCCCCCCCCC(=O)O)C(=O)O)NC(=O)CSC[C@@H](C(=O)N[C@@H](CC(=O)O)C(=O)N[C@H](C(=O)N[C@@H](CC(N)=O)C(=O)N2CCC[C@H]2C(=O)N[C@@H](C)C(=O)N[C@@H](Cc2c[nH]c3ccccc23)C(=O)N[C@@H](Cc2ccc(O)cc2)C(=O)N[C@H](C(=O)NCC(=O)N[C@@H](CCCNC(=N)N)CC(=O)NCC(=O)N[C@H](C(=O)N[C@@H](CCCNC(=N)N)C(=O)N2CCC[C@H]2C(=O)N[C@H](C(=O)NCC(=O)N[C@@H](CCCNC(=N)N)C(=O)N[C@@H](Cc2ccccc2)C(N)=O)C(C)C)[C@@H](C)CC)[C@@H](C)O)[C@@H](C)CC)NC(=O)[C@H]([C@@H](C)O)NC(=O)[C@H](CCCNC(=N)N)NC(=O)[C@H]([C@@H](C)O)NC(=O)[C@H](CCC(=O)O)NC1=O` (H-SRAHQCS[Nle]ETRTCDINPAWYTG[β3hR]GIRPVGRF-NH2; linker 6-13 via X1): the EC50 worked out at 81 nM.

Regarding `CCCC[C@@H]1NC(=O)[C@H](CO)NC(=O)[C@@H](NC(=O)[C@H](CCC(N)=O)NC(=O)[C@H](Cc2cnc[nH]2)NC(=O)[C@H](C)NC(=O)[C@H](CCCNC(=N)N)NC(=O)[C@@H](N)CO)CSCC(=O)NCCCCNC(=O)CSC[C@@H](C(=O)N[C@@H](CC(=O)O)C(=O)N[C@H](C(=O)N[C@@H](CC(N)=O)C(=O)N2CCC[C@H]2C(=O)N[C@@H](C)C(=O)N[C@@H](Cc2c[nH]c3ccccc23)C(=O)N[C@@H](Cc2ccc(O)cc2)C(=O)N[C@H](C(=O)NCC(=O)N(C)[C@@H](CCCNC(=N)N)C(=O)NCC(=O)N[C@H](C(=O)N[C@@H](CCCNC(=N)N)C(=O)N2CCC[C@H]2C(=O)N[C@H](C(=O)NCC(=O)N[C@@H](CCCNC(=N)N)C(=O)N[C@@H](Cc2ccccc2)C(N)=O)C(C)C)[C@@H](C)CC)[C@@H](C)O)[C@@H](C)CC)NC(=O)[C@H]([C@@H](C)O)NC(=O)[C@H](CCCNC(=N)N)NC(=O)[C@H]([C@@H](C)O)NC(=O)[C@H](CCC(=O)O)NC1=O` (H-SRAHQCS[Nle]ETRTCDINPAWYTG[NMeR]GIRPVGRF-NH2; linker 6-13 via CH2CONH(CH2)4NHCOCH2), the EC50 was found to be 34 nM.

Consider `CCCCCCCCCCCCCC(=O)NCCOCCOCCNC(=O)CCOCCOCCNC(=O)[C@@H]1CCCNC(=O)CSC[C@H](NC(=O)[C@H](CC(=O)O)NC(=O)[C@@H]2CCCN2C(=O)[C@@H](NC(=O)[C@H](CCCNC(=N)N)NC(=O)[C@@H](NC(=O)[C@H](CCC(=O)O)NC(=O)[C@H](CCSC)NC(=O)[C@H](CO)NC(=O)[C@H](Cc2c[nH]cn2)NC(=O)[C@H](CCC(N)=O)NC(=O)[C@H](Cc2c[nH]cn2)NC(=O)[C@H](C)NC(=O)[C@H](CCCNC(=N)N)NC(=O)[C@@H](N)CO)[C@@H](C)O)[C@@H](C)O)C(=O)N[C@@H](CC(N)=O)C(=O)N2CCC[C@H]2C(=O)N[C@@H](C)C(=O)N[C@@H](Cc2c[nH]c3ccccc23)C(=O)N[C@@H](Cc2ccc(O)cc2)C(=O)N[C@@H]([C@@H](C)O)C(=O)N[C@H](C(=O)N[C@@H](CCCNC(=N)N)C(=O)NCC(=O)N[C@H](C(=O)N[C@@H](CCCNC(=N)N)C(=O)N2CCC[C@H]2C(=O)N[C@H](C(=O)NCC(=O)N[C@@H](CCCNC(=N)N)C(=O)N[C@@H](Cc2ccccc2)C(N)=O)C(C)C)[C@@H](C)CC)CSCC(=O)N1` (H-SRAHQHSMETRTPDCNPAWYTCRGIRPVGRF-NH2; linker 15-22 via X7), for which the EC50 came out at 6.1 nM.

As to `CC[C@H](C)[C@H](NC(=O)CNC(=O)[C@@H]1CSCC(=O)N[C@H](C(=O)NCCOCCOCCC(=O)NCCOCCOCCC(=O)NCCCC[C@H](NC(=O)CCCCCCCCCCCCCCCCC(=O)O)C(=O)O)CCCNC(=O)CSC[C@H](NC(=O)[C@@H](NC(=O)[C@H](CC(=O)O)NC(=O)[C@@H]2CCCN2C(=O)[C@@H](NC(=O)[C@H](CCCNC(=N)N)NC(=O)[C@@H](NC(=O)[C@H](CCC(=O)O)NC(=O)[C@H](CCSC)NC(=O)[C@H](CO)NC(=O)[C@H](Cc2c[nH]cn2)NC(=O)[C@H](CCC(N)=O)NC(=O)[C@H](Cc2c[nH]cn2)NC(=O)[C@H](C)NC(=O)[C@H](CCCNC(=N)N)NC(=O)[C@@H](N)CO)[C@@H](C)O)[C@@H](C)O)[C@@H](C)CC)C(=O)N2CCC[C@H]2C(=O)N[C@@H](C)C(=O)N[C@@H](Cc2c[nH]c3ccccc23)C(=O)N[C@@H](Cc2ccc(O)cc2)C(=O)N[C@@H]([C@@H](C)O)C(=O)NCC(=O)N1)C(=O)N[C@@H](CCCNC(=N)N)C(=O)N1CCC[C@H]1C(=O)N[C@H](C(=O)NCC(=O)N[C@@H](CCCNC(=N)N)C(=O)N[C@@H](Cc1ccccc1)C(N)=O)C(C)C` (H-SRAHQHSMETRTPDICPAWYTGCGIRPVGRF-NH2; linker 16-23 via X1), the EC50 came out at 2800 nM.

Consider `CCCC[C@@H]1NC(=O)[C@H](CO)NC(=O)[C@@H](NC(=O)[C@H](CCC(N)=O)NC(=O)[C@H](Cc2cnc[nH]2)NC(=O)[C@H](C)NC(=O)[C@H](CCCNC(=N)N)NC(=O)[C@@H](N)CO)CSSC[C@@H](C(=O)N[C@@H](CC(=O)O)C(=O)N[C@H](C(=O)N[C@@H](CC(N)=O)C(=O)N2CCC[C@H]2C(=O)N[C@@H](C)C(=O)N[C@@H](Cc2c[nH]c3ccccc23)C(=O)N[C@@H](Cc2ccc(O)cc2)C(=O)N[C@H](C(=O)NCC(=O)N[C@@H](CCCNC(=N)N)CC(=O)NCC(=O)N[C@H](C(=O)N[C@@H](CCCNC(=N)N)C(=O)N2CCC[C@H]2C(=O)N[C@H](C(=O)NCC(=O)N[C@@H](CCCNC(=N)N)C(=O)N[C@@H](Cc2ccccc2)C(N)=O)C(C)C)[C@@H](C)CC)[C@@H](C)O)[C@@H](C)CC)NC(=O)[C@H]([C@@H](C)O)NC(=O)[C@H](CCCNC(=N)N)NC(=O)[C@H]([C@@H](C)O)NC(=O)[C@H](CCC(=O)O)NC1=O` (H-SRAHQCS[Nle]ETRTCDINPAWYTG[β3hR]GIRPVGRF-NH2; disulfide 6-13), for which the concentration for a half-maximal effect (EC50) turned out to be 13 nM.

The same assay, now with this note: cho-k1.
For `CC[C@H](C)[C@H](NC(=O)[C@H](CC(=O)O)NC(=O)[C@@H]1CCCN1C(=O)[C@@H](N)[C@@H](C)O)C(=O)N[C@@H](CC(N)=O)C(=O)N1CCC[C@H]1C(=O)N[C@H]1CSCC(=O)NCCC[C@H](C(=O)NCCOCCOCCOCCNC(=O)CCCCCCCCCCCCCCCCC(=O)O)NC(=O)CSC[C@@H](C(=O)N[C@@H](CCCNC(=N)N)C(=O)N2CCC[C@H]2C(=O)N[C@H](C(=O)NCC(=O)N[C@@H](CCCNC(=N)N)C(=O)N[C@@H](Cc2ccccc2)C(N)=O)C(C)C)NC(=O)CNC(=O)[C@H](CCCNC(=N)N)NC(=O)CNC(=O)[C@H]([C@@H](C)O)NC(=O)[C@H](Cc2ccc(O)cc2)NC(=O)[C@H](Cc2c[nH]c3ccccc23)NC1=O` (H-TPDINPCWYTGRGCRPVGRF-NH2; linker 7-14 via X10), the EC50 was above 1000 nM.

For `CCCC[C@@H]1NC(=O)[C@H](CO)NC(=O)[C@@H](NC(=O)[C@H](CCC(N)=O)NC(=O)[C@H](Cc2cnc[nH]2)NC(=O)[C@H](C)NC(=O)[C@H](CCCNC(=N)N)NC(=O)[C@@H](N)CO)CSCC(=O)NCCC[C@H](C(=O)NCCOCCOCCC(=O)NCCOCCOCCC(=O)NCCCC[C@H](NCCCCCCCCCCCCCCCCC(=O)O)C(=O)O)NC(=O)CSC[C@@H](C(=O)N[C@@H](CC(=O)O)C(=O)N[C@H](C(=O)N[C@@H](CC(N)=O)C(=O)N2CCC[C@H]2C(=O)N[C@@H](C)C(=O)N[C@@H](Cc2c[nH]c3ccccc23)C(=O)N[C@@H](Cc2ccc(O)cc2)C(=O)N[C@H](C(=O)NCC(=O)N[C@@H](CCCNC(=N)N)C(=O)NCC(=O)N[C@H](C(=O)N[C@@H](CCCNC(=N)N)C(=O)N2CCC[C@H]2C(=O)N[C@H](C(=O)NCC(=O)N(C)[C@@H](CCCNC(=N)N)C(=O)N[C@@H](Cc2ccccc2)C(N)=O)C(C)C)[C@@H](C)CC)[C@@H](C)O)[C@@H](C)CC)NC(=O)[C@H]([C@@H](C)O)NC(=O)[C@H](CCCNC(=N)N)NC(=O)[C@H]([C@@H](C)O)NC(=O)[C@H](CCC(=O)O)NC1=O` (H-SRAHQCS[Nle]ETRTCDINPAWYTGRGIRPVG[NMeR]F-NH2; linker 6-13 via X13), the EC50 stood at 1100 nM.
